{"source": "patent US10000476B2", "about": "“Pyridone derivative, pharmaceutical containing the same and methods of use thereof” (KAKEN PHARMACEUTICAL CO., LTD., priority 2011, dated 2018)", "key": {"TACE": {"molecular_target": "TACE (Homo sapiens (Human), UniProt P78536)", "sequence (P78536 215-824)": "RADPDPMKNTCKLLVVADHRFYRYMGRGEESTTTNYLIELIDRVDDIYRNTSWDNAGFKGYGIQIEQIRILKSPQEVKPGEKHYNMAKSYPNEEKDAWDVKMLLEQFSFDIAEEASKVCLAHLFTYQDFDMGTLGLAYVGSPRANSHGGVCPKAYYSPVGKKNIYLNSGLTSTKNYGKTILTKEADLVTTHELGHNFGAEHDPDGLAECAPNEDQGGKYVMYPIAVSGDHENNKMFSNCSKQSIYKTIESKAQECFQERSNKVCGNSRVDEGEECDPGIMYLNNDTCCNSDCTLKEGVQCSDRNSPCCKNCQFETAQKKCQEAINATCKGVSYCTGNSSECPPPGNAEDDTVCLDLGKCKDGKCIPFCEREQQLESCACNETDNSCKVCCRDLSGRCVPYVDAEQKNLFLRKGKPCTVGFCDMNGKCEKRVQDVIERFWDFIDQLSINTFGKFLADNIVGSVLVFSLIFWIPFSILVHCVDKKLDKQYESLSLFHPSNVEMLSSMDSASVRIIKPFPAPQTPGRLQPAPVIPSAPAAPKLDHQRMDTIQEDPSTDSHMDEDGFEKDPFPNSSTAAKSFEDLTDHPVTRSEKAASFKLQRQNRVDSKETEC", "test": "TACE inhibition test (in vitro)", "type": "biochemical", "details": "fluorescent synthetic substrate, 37° C., 1.5 hours", "procedure,_shortened": "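Recombinant enzyme (cDNA from THP-1 cells, expressed in mammalian or insect cells) with quenched substrate Nma-Leu-Ala-Gln-Ala-Val-Arg-Ser-Ser-Lys(Dnp)-D-Arg-NH2. Incubated 1.5 h at 37 °C; fluorescence read at ex 355/em 460 nm; IC50 from inhibition rate.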"}, "human MMP-2": {"molecular_target": "human MMP-2 (Homo sapiens (Human), UniProt P08253)", "sequence (P08253 110-660)": "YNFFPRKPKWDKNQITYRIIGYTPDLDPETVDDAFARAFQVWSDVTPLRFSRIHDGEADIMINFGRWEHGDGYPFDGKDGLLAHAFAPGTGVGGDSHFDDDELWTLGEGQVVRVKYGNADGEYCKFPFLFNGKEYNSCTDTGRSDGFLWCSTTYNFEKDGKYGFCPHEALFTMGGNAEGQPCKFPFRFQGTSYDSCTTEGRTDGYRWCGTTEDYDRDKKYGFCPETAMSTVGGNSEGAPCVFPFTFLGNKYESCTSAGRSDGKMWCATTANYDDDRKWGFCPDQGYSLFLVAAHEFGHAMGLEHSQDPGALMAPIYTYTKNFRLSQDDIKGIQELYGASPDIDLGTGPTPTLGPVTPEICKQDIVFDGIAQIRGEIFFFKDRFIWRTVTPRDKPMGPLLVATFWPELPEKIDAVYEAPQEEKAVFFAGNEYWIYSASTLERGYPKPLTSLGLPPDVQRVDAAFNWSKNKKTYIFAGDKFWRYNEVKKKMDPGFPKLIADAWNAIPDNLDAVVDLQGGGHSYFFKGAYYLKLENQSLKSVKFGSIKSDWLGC", "test": "MMP-2 inhibition test", "type": "biochemical", "details": "read-out: MMPs IC50 MMP-2", "method": "(§1) MMP inhibition tests can be carried out, for example, using a fluorescent synthetic substrate based on the methods described in Bickett et al. (D. Mark Bickett et al., Anal. Biochem., 1993, 212, 58-64) and Nagase et al. (H. Nagase et al., J. Biol. Chem., 1994, 269, 20952-20957). The method for each MMP inhibition test is shown below.\n90 μL (5 ng) of human MMP-2 (Calbiochem #444213) was mixed with 10 μL of 10 mM APMA, and activated by reacting at 37° C. for 1 hour. 10 μL of the resultant enzyme solution was diluted to 90 μL with an assay buffer A. The mixture was added to 90 μL of a 20 μM fluorescent substrate (MOCAc((7-methoxycoumarin-4-yl)acetyl)-Pro-Leu-Gly-Leu-A2pr(Dnp)-Ala-Arg-NH2, Peptide Institute Inc., #3163-v) (SEQ ID NO: 3) prepared with an assay buffer B, and reacted at 37° C. for 5 hours. Enzyme activity was then determined by measuring with a fluorescence intensity meter (Labsystems, Fluoroskan Ascent) at an excitation wavelength of 320 nm and a measurement wavelength of 405 nm.\n(§2) From the enzyme activity in the presence or the absence of the test substance, the inhibition rate was determined, and the 50% inhibitiory concentration (IC50) of the test substance was calculated."}, "human MMP-14": {"molecular_target": "human MMP-14 (Homo sapiens (Human), UniProt P50281)", "test": "MMP-14 inhibition test", "type": "biochemical", "details": "read-out: MMPs IC50 MMP-14", "method": "as §1\n90 μL (1.9 ng) of human MMP-14 (Calbiochem #475935) prepared with an assay buffer A was added to 90 μL of a 20 μM fluorescent substrate (Dnp-Pro-Cha-Gly-Cys(Me)-His-Ala-Lys(Nma)-NH2) (SEQ ID NO: 2) prepared with an assay buffer B, and reacted at 37° C. for 5 hours. Enzyme activity was then determined by measuring with a fluorescence intensity meter (Labsystems, Fluoroskan Ascent) at an excitation wavelength of 355 nm and a measurement wavelength of 460 nm.\nas §2"}, "human MMP-17": {"molecular_target": "human MMP-17 (Homo sapiens, UniProt Q9ULZ9)", "sequence (Q9ULZ9 126-565 limits assumed)": "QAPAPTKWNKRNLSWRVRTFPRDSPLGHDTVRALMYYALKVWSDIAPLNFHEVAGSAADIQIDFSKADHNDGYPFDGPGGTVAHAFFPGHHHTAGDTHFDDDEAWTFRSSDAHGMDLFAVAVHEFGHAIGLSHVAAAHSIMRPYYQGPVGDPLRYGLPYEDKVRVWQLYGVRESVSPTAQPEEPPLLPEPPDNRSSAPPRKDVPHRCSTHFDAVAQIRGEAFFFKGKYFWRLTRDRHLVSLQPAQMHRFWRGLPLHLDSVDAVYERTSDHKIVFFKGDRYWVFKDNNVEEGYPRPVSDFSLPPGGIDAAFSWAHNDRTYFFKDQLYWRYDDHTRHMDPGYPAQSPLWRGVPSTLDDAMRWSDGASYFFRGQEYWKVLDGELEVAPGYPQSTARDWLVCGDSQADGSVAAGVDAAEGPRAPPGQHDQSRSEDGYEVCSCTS", "test": "MMP-17 inhibition test", "type": "biochemical", "details": "read-out: MMPs IC50 MMP-17", "method": "as §1\n90 μL (5.8 ng) of human MMP-17 (Calbiochem #475940) prepared with an assay buffer A was added to 90 μL of a 20 μM fluorescent substrate (MOCAc-Pro-Leu-Gly-Leu-A2pr(Dnp)-Ala-Arg-NH2, Peptide Institute Inc., #3163-v) (SEQ ID NO: 3) prepared with an assay buffer B, and reacted at room temperature for 5 hours. Enzyme activity was then determined by measuring with a fluorescence intensity meter (Labsystems, Fluoroskan Ascent) at an excitation wavelength of 320 nm and a measurement wavelength of 405 nm.\nas §2"}, "[1]": {"system": "auricular oedema induced by TPA in BALB/c mice", "test": "Inhibition test of auricular oedema induced by single application of TPA in mouse", "type": "in vivo", "details": "1 w/v % solution applied topically to ear 1 hour before TPA, auricle thickness 6 hours after TPA, read-out: Auricular oedema inhibition rate (%)", "method": "Inhibition Test of Auricular Oedema Induced by Single Application of TPA (12-O-tetradecanoylphorbol-13-acetate) in Mouse (In Vivo Efficacy Test Based on TNF-α-Related Cutaneous Inflammation)\nAuricular oedema was induced by applying 54 μmol/L TPA-acetone solution on both the inner and outer sides of the left ear of BALB/c mice (application volume of 54 μmol/L TPA-acetone solution is 10 μL for each side of the left ear (i.e. 1.08 nmol TPA/auricle)). For a non-induced group, acetone was similarly applied instead of the 54 μmol/L TPA-acetone solution. The test substance was dissolved and prepared in a 1 w/v % solution of acetone containing 10 vol % DMSO (topical administration vehicle), then the test solution was applied onto both the inner and outer sides of the left ear of the mice (application volume of this test solution is 10 μL for each side of the left ear) 1 hour before the TPA application. For a control group, the topical administration vehicle was similarly applied instead of the test substance solution. For an etanercept group, 0.2 mL of a 5 mg/mL etanercept solution was intravenously administered (1 mg/mouse) the day before TPA application and 1.5 hours before TPA application. For a human IgG (hIgG) group (etanercept control group), 0.2 mL of a 5 mg/mL hIgG solution was intravenously administered (1 mg/mouse). Auricle thickness was measured under ether anesthesia the day before TPA application and 6 hours after TPA application for evaluation of the auricular oedema inhibition effect of the test substance based on the increase in auricle thickness as an index.\nThe auricular oedema inhibition rate (%) of the test substance was calculated based on the following formula using (A) the average value of the increase in auricular thickness of the group administered with the test substance, (B) the average value of the increase in auricular thickness of the non-induced group, and (C) the average value of the increase in auricular thickness of the control group. […]"}}, "note": "pIC50: −log10 of the molar value."}
{"molecule": "Cc1cccn(CC2(c3ccccc3)NC(=O)NC2=O)c1=O", "note": "(stereo not shown) [Compound I-1, 5-[(3-methyl-2-oxopyridin-1(2H)-yl)methyl]-5-phenyl-imidazolidine-2,4-dione]", "values": [{"measurement": "pIC50", "setting": "TACE", "result": "> 7.00"}, {"measurement": "pIC50", "setting": "human MMP-2", "result": "< 4.00"}, {"measurement": "pIC50", "setting": "human MMP-14", "result": 4.51}, {"measurement": "pIC50", "setting": "human MMP-17", "result": "< 4.00"}]}
{"molecule": "Cc1cccn(CC2(c3ccc(Oc4ccccc4)cc3)NC(=O)NC2=O)c1=O", "note": "(stereo not shown) [Compound I-9, 5-[(3-methyl-2-oxopyridin-1(2H)-yl)methyl]-5-(4-phenoxyphenyl)imidazolidine-2,4-dione]", "values": [{"measurement": "pIC50", "setting": "TACE", "result": "> 7.00"}, {"measurement": "pIC50", "setting": "human MMP-2", "result": 4.54}, {"measurement": "pIC50", "setting": "human MMP-14", "result": 4.92}, {"measurement": "pIC50", "setting": "human MMP-17", "result": 4.68}, {"measurement": "inhibition in vivo at 10000 µg/mL", "setting": "[1]", "result": 66, "unit": "%"}]}
{"molecule": "Cc1cccn(CC2(c3ccc(F)c(F)c3)NC(=O)NC2=O)c1=O", "note": "(stereo not shown) [Compound I-10, 5-(3,4-difluorophenyl)-5-[(3-methyl-2-oxopyridin-1(2H)-yl)methyl] imidazolidine-2,4-dione]", "values": [{"measurement": "pIC50", "setting": "TACE", "result": "> 7.00"}, {"measurement": "pIC50", "setting": "human MMP-2", "result": "< 4.00"}, {"measurement": "pIC50", "setting": "human MMP-14", "result": 4.52}, {"measurement": "pIC50", "setting": "human MMP-17", "result": "< 4.00"}, {"measurement": "inhibition in vivo at 10000 µg/mL", "setting": "[1]", "result": 46, "unit": "%"}]}
{"molecule": "COc1ccc(Cl)cc1C1(Cn2cccc(C)c2=O)NC(=O)NC1=O", "note": "(stereo not shown) [Compound I-27, 5-(5-chloro-2-methoxyphenyl)-5-[(3-methyl-2-oxopyridin-1(2H)-yl)methyl]imidazolidine-2,4-dione]", "values": [{"measurement": "pIC50", "setting": "TACE", "result": "> 7.00"}, {"measurement": "pIC50", "setting": "human MMP-2", "result": 4.21}, {"measurement": "pIC50", "setting": "human MMP-14", "result": 4.96}, {"measurement": "pIC50", "setting": "human MMP-17", "result": 4.24}]}
{"molecule": "Cc1cccn(CC2(c3ccc(Cc4ccccc4)cc3)NC(=O)NC2=O)c1=O", "note": "(stereo not shown) [Compound I-40, 5-(4-benzylphenyl)-5-[(3-methyl-2-oxopyridin-1(2H)-yl)methyl]imidazolidine-2,4-dione]", "values": [{"measurement": "pIC50", "setting": "TACE", "result": "> 7.00"}, {"measurement": "pIC50", "setting": "human MMP-2", "result": "< 4.00"}, {"measurement": "pIC50", "setting": "human MMP-14", "result": 4.66}, {"measurement": "pIC50", "setting": "human MMP-17", "result": 4.52}, {"measurement": "inhibition in vivo at 10000 µg/mL", "setting": "[1]", "result": 63, "unit": "%"}]}
{"molecule": "Cc1cccn(CC2(c3ccc(Cc4ccc(F)cc4)cc3)NC(=O)NC2=O)c1=O", "note": "(stereo not shown) [Compound I-41, 5-[4-(4-fluorobenzyl)phenyl]-5-[(3-methyl-2-oxopyridin-1(2H)-yl)methyl] imidazolidine-2,4-dione]", "values": [{"measurement": "pIC50", "setting": "TACE", "result": "> 7.00"}, {"measurement": "pIC50", "setting": "human MMP-2", "result": 4.16}, {"measurement": "pIC50", "setting": "human MMP-14", "result": 4.68}, {"measurement": "pIC50", "setting": "human MMP-17", "result": 4.80}, {"measurement": "inhibition in vivo at 10000 µg/mL", "setting": "[1]", "result": 51, "unit": "%"}]}
{"molecule": "Cc1cccn(CC2(c3cccc(-c4cccnc4)c3)NC(=O)NC2=O)c1=O", "note": "(stereo not shown) [Compound I-62]", "values": [{"measurement": "pIC50", "setting": "TACE", "result": "> 7.00"}, {"measurement": "pIC50", "setting": "human MMP-2", "result": 4.51}, {"measurement": "pIC50", "setting": "human MMP-14", "result": 4.66}, {"measurement": "pIC50", "setting": "human MMP-17", "result": 4.35}, {"measurement": "inhibition in vivo at 10000 µg/mL", "setting": "[1]", "result": 47, "unit": "%"}]}
{"molecule": "Cc1cccn(CC2(c3ccc(OCc4ccccc4)cc3)NC(=O)NC2=O)c1=O", "note": "(stereo not shown) [Compound I-64]", "values": [{"measurement": "pIC50", "setting": "TACE", "result": "> 7.00"}, {"measurement": "pIC50", "setting": "human MMP-2", "result": "< 5.00"}, {"measurement": "pIC50", "setting": "human MMP-14", "result": 5.22}, {"measurement": "pIC50", "setting": "human MMP-17", "result": "< 4.00"}, {"measurement": "inhibition in vivo at 10000 µg/mL", "setting": "[1]", "result": 50, "unit": "%"}]}
{"molecule": "Cc1cccn(CC2(c3ccc(Oc4ccccc4F)cc3)NC(=O)NC2=O)c1=O", "note": "(stereo not shown) [Compound I-86]", "values": [{"measurement": "pIC50", "setting": "TACE", "result": "> 7.00"}, {"measurement": "pIC50", "setting": "human MMP-2", "result": 4.29}, {"measurement": "pIC50", "setting": "human MMP-14", "result": 4.64}, {"measurement": "pIC50", "setting": "human MMP-17", "result": 4.57}, {"measurement": "inhibition in vivo at 10000 µg/mL", "setting": "[1]", "result": 68, "unit": "%"}]}
